# Target: T1, recombinant full-length human prolyl endopeptidase (PREP) (Homo sapiens, UniProt P48147)
# T1 construct: To recombinant full-length human prolyl endopeptidase (PREP, R&D-Systems, 4308-SE); purchased R&D-Systems 4308-SE
# T1 sequence (P48147 1-710): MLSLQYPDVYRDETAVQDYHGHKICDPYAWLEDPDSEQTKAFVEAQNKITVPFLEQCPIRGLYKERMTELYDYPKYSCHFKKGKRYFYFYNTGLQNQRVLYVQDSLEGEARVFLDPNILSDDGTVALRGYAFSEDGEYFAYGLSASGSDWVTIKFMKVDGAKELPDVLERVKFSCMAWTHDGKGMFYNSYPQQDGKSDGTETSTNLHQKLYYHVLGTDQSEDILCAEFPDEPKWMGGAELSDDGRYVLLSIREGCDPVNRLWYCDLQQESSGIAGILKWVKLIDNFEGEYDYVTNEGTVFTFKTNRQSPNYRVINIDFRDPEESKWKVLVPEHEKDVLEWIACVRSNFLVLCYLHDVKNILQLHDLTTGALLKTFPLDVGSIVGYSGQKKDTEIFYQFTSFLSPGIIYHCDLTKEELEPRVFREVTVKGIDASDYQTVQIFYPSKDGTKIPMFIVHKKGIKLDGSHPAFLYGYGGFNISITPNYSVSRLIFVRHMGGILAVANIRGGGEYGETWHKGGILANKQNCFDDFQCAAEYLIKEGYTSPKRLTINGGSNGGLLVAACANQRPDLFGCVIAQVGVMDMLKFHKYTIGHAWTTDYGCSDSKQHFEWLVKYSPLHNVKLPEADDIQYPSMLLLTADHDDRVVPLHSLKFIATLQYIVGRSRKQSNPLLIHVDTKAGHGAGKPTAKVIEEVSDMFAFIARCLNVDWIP
# Experiment: Biochemical human prolyl endopeptidase (PREP) assay with fluorescently labelled substrate
# Settings: substrate Z-Gly-Pro-AMC 50 μM, 32° C., 60 min; some as mean values from multiple independent determinations
# Summary of the method: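 Initial rates of fluorescence increase from 50 μM Z-Gly-Pro-AMC cleavage (ex 360/em 465 nm, 60 min, 32° C) give percent PREP activity versus no-compound control, and IC50 is interpolated. Enzyme used at 0.4 nM (final, example) in Tris pH 7.5 with EDTA, GSH, BSA and Brij-35; compounds span 1 nM to 30 μM.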
row,Compound,IC50
1,"CC1Cc2nn(Cc3ccnc(C(F)(F)F)c3F)c(=O)n2C(C(=O)N2CCC(F)(F)C2)C1 (racemic) [Example 334, (5RS,7RS)-5-[(3,3-Difluoropyrrolidin-1-yl)carbonyl]-2-{[3-fluoro-2-(trifluoromethyl)pyridin-4-yl]methyl}-7-methyl-5,6,7,8-tetrahydro[1,2,4]triazolo[4,3-a]pyridin-3(2H)-one]",2.95 nM
2,"CC1Cc2nn(Cc3ccc(C(F)(F)F)nc3)c(=O)n2C(C(=O)N2C[C@@H](F)[C@@H](F)C2)C1 (single isomer, unassigned) [Example 337]",7.5 nM
3,"O=C(C1CCc2nn(Cc3ccc(C(F)(F)F)nc3)c(=O)n21)N1CCC(F)(F)C1 (racemic) [Example 167, (5RS)-5-[(3,3-Difluoropyrrolidin-1-yl)carbonyl]-2-{[6-(trifluoromethyl)pyridin-3-yl]methyl}-2,5,6,7-tetrahydro-3H-pyrrolo[2,1-c][1,2,4]triazol-3-one]",56.5 nM
4,"O=C(C1CC(C(F)(F)F)Cc2nn(Cc3ccc(C(F)(F)F)nc3)c(=O)n21)N1CC(O)C1 (racemic) [Example 233, (5RS,7RS)-5-[(3-Hydroxyazetidin-1-yl)carbonyl]-7-(trifluoromethyl)-2-{[6-(trifluoromethyl)pyridin-3-yl]methyl}-5,6,7,8-tetrahydro[1,2,4]triazolo[4,3-a]pyridin-3(2H)-one]",203 nM
5,"O=C(C1CC(C(F)(F)F)Cc2nn(Cc3ncc(C(F)(F)F)cc3Cl)c(=O)n21)N1CCC(F)(F)C1 (racemic) [Example 564, (5RS,7RS)-2-{[3-Chloro-5-(trifluoromethyl)pyridin-2-yl]methyl}-5-[(3,3-difluoropyrolidin-1-yl)carbonyl]-7-(trifluoromethyl)-5,6,7,8-tetrahydro[1,2,4]triazolo[4,3-a]pyridin-3(2H)-one]",4.4 nM
6,"O=C([C@@H]1CCCc2nn(CCc3ccc(F)cc3)c(=O)n21)N1CC(F)C1 [Example 520, (5S)-5-[(3-Fluoroazetidin-1-yl)carbonyl]-2-[2-(4-fluorophenyl)ethyl]-5,6,7,8-tetrahydro[1,2,4]triazolo[4,3-a]pyridin-3(2H)-one]",1.7 nM
7,"CC1Cc2nn(Cc3ccc(C(F)(F)F)nc3)c(=O)n2C(C(=O)N2CC(O)C2)C1 (racemic) [Example 134, (5RS,7RS)-5-[(3-Hydroxyazetidin-1-yl)carbonyl]-7-methyl-2-{[6-(trifluoromethyl)pyridin-3-yl]methyl}-5,6,7,8-tetrahydro[1,2,4]triazolo[4,3-a]pyridin-3(2H)-one]",79 nM
8,"CC1Cc2nn(Cc3ccnc(C(F)(F)F)c3F)c(=O)n2C(C(=O)N2C[C@@H](F)[C@@H](F)C2)C1 (mixture of isomers) [Example 333, (5RS,7RS)-5-{[(3R,4S)-3,4-Difluoropyrrolidin-1-yl]carbonyl}-2-{[3-fluoro-2-(trifluoromethyl)pyridin-4-yl]methyl}-7-methyl-5,6,7,8-tetrahydro[1,2,4]triazolo[4,3-a]pyridin-3(2H)-one]",2.1 nM
9,"COc1ccc(CCn2nc3n(c2=O)[C@H](C(=O)N2CCC(F)(F)C2)CCC3)cc1 [Example 346, (5S)-5-[(3,3-Difluoropyrrolidin-1-yl)carbonyl]-2-[2-(4-methoxyphenyl)ethyl]-5,6,7,8-tetrahydro[1,2,4]triazolo[4,3-a]pyridin-3(2H)-one]",4.2 nM
10,"Cc1ccc(Cn2nc3n(c2=O)[C@H](C(=O)N2CC[C@@H](O)C2)CCC3)cc1 [Example 122, (5S)-5-{[(3R)-3-Hydroxypyrrolidin-1-yl]carbonyl}-2-(4-methylbenzyl)-5,6,7,8-tetrahydro[1,2,4]triazolo[4,3-a]pyridin-3(2H)-one]",10.2 nM
11,O=C(C1CCCc2nn(Cc3ccc(F)c(C(F)(F)F)c3)c(=O)n21)N1CCCC1 (racemic) [Example 66],0.38 nM
12,"O=C([C@@H]1CCCc2nn(Cc3cccc(C(F)(F)F)c3)c(=O)n21)N1C[C@@H](F)[C@@H](F)C1 [Example 445, (5S)-5-{[(3R,4S)-3,4-Difluoropyrrolidin-1-yl]carbonyl}-2-[3-(trifluoromethyl)benzyl]-5,6,7,8-tetrahydro[1,2,4]triazolo[4,3-a]pyridin-3(2H)-one]",0.76 nM
13,"O=C([C@@H]1CCc2nn(Cc3ccc(C(F)(F)F)nc3)c(=O)n21)N1CCCC1 [Example 50, (5S)-5-(Pyrrolidin-1-ylcarbonyl)-2-{[6-(trifluoromethyl)pyridin-3-yl]methyl}-2,5,6,7-tetrahydro-3H-pyrrolo[2,1-c][1,2,4]triazol-3-one]",12 nM
14,"Cc1ccc(Cn2nc3n(c2=O)C(C(=O)N2CC(O)C2)CCC3)cc1 (racemic) [Example 120, (5RS)-5-[(3-Hydroxyazetidin-1-yl)carbonyl]-2-(4-methylbenzyl)-5,6,7,8-tetrahydro[1,2,4]triazolo[4,3-a]pyridin-3(2H)-one]",9.6 nM
15,"CO[C@H]1CCN(C(=O)[C@@H]2CCCc3nn(Cc4ccc(C)cc4)c(=O)n32)C1 [Example 130, (5S)-{[(3S)-3-Methoxypyrrolidin-1-yl]carbonyl}-2-(4-methylbenzyl)-5,6,7,8-tetrahydro[1,2,4]triazolo[4,3-a]pyridin-3(2H)-one]",50.5 nM
16,"Cc1ccc(Cn2nc3n(c2=O)C(C(=O)N2CCCCC2)CCC3)cc1 (racemic) [Example 161, (5RS)-2-(4-Methylbenzyl)-5-(piperidin-1-ylcarbonyl)-5,6,7,8-tetrahydro[1,2,4]triazolo[4,3-a]pyridin-3(2H)-one]",37 nM
17,"CC(C)(C)OC(=O)c1ccc(Cn2nc3n(c2=O)C(C(=O)N2CCCC2)CCC3)cc1 (racemic) [Example 28, tert-Butyl 4-{[(5RS)-3-oxo-5-(pyrrolidin-1-ylcarbonyl)-5,6,7,8-tetrahydro[1,2,4]triazolo[4,3-a]pyridin-2(3H)-yl]methyl}benzoate]",24 nM
18,"Cn1nc(Cn2nc3n(c2=O)[C@H](C(=O)N2C[C@@H](F)[C@@H](F)C2)CCC3)c2cccnc21 [Example 414, (5S)-5-{[(3R,4S)-3,4-Difluoropyrrolidin-1-yl]carbonyl}-2-[(1-methyl-1H-pyrazolo[3,4-b]pyridin-3-yl)methyl]-5,6,7,8-tetrahydro[1,2,4]triazolo[4,3-a]pyridin-3(2H)-one]",0.79 nM
19,"O=C([C@@H]1CCCc2nn(Cc3ncc(Cl)cc3Cl)c(=O)n21)N1CC(F)(F)C1 [Example 397, (5S)-2-[(3,5-Dichloropyridin-2-yl)methyl]-5-[(3,3-difluoroazetidin-1-yl)carbonyl]-5,6,7,8-tetrahydro[1,2,4]triazolo[4,3-a]pyridin-3(2H)-one]",6.9 nM
20,"O=C(C1CC(C(F)(F)F)Cc2nn(Cc3ccc(Cl)nc3)c(=O)n21)N1CC(F)C1 (single isomer, unassigned) [Example 239, (5RS,7RS)-2-[(6-Chloropyridin-3-yl)methyl]-5-[(3-fluoroazetidin-1-yl)carbonyl]-7-(trifluoromethyl)-5,6,7,8-tetrahydro[1,2,4]triazolo[4,3-a]pyridin-3(2H)-one]",11.2 nM
21,"O=C(C1CCCc2nn(Cc3cccc(Cl)c3)c(=O)n21)N1CCC(F)(F)C1 (racemic) [Example 44, (5RS)-2-(3-Chlorobenzyl)-5-[(3,3-difluoropyrrolidin-1-yl)carbonyl]-5,6,7,8-tetrahydro[1,2,4]triazolo[4,3-a]pyridin-3(2H)-one]",2.1 nM
22,"CS(=O)(=O)c1ccc(Cn2nc3n(c2=O)C(C(=O)N2CCCC2)CCC3)cc1 (racemic) [Example 6, (5RS)-2-[4-(Methylsulphonyl)benzyl]-5-(pyrrolidin-1-ylcarbonyl)-5,6,7,8-tetrahydro[1,2,4]triazolo[4,3-a]pyridin-3(2H)-one]",120 nM
23,"O=C([C@@H]1CCCc2nn(Cc3ccc(C(F)(F)F)c(Cl)c3)c(=O)n21)N1C[C@@H](F)[C@@H](F)C1 [Example 458, (5S)-2-[3-Chloro-4-(trifluoromethyl)benzyl]-5-{[(3R,4S)-3,4-difluoropyrrolidin-1-yl]carbonyl}-5,6,7,8-tetrahydro[1,2,4]triazolo[4,3-a]pyridin-3(2H)-one]",0.51 nM
24,"O=C([C@@H]1CCCc2nn(Cc3ccc(Cl)nc3)c(=O)n21)N1CC[C@H](F)C1 [Example 422, (5S)-2-[(6-Chloropyridin-3-yl)methyl]-5-{[(3S)-3-fluoropyrrolidin-1-yl]carbonyl}-5,6,7,8-tetrahydro[1,2,4]triazolo[4,3-a]pyridin-3(2H)-one]",0.63 nM
25,"O=C([C@@H]1CCC(F)(F)c2nn(Cc3ccc(Cl)cn3)c(=O)n21)N1CCC(F)(F)C1 [Example 586, (5S)-2-[(5-Chloropyridin-2-yl)methyl]-5-[(3,3-difluoropyrrolidin-1-yl)carbonyl]-8,8-difluoro-5,6,7,8-tetrahydro[1,2,4]triazolo[4,3-a]pyridin-3(2H)-one]",14 nM
26,"O=C([C@@H]1CCCc2nn(Cc3ccc(Cl)nc3)c(=O)n21)N1CC(F)C(F)C1 (single isomer, unassigned) [Example 552]",6.4 nM
